Data from article PMC12298827, “Subchronic Toxicities of Four Per- and Polyfluoroalkyl Substances (PFASs) by Oral Exposure in Sprague–Dawley Rats” (Toxics, 2025).

System: male and female Sprague–Dawley rats
Test: 90-day subchronic oral gavage toxicity study
Type: in vivo, rat
Protocol: Subchronic (90-day) studies were performed in accordance with current U.S. EPA’s Toxic Substances Control Act Good Laboratory Practice (GLP) Standards, with the following two general exceptions to the GLP guidelines: Analysis of the dose formulations was conducted according to RTI-approved Standard Operating Procedures, and corn oil (the vehicle) was not characterized (certificate of analysis from the vendor is available in the appendices to the final reports). Male and female Sprague–Dawley rats (five dose levels plus a control, n = 10/sex/dose group, corn oil vehicle dose volume of 3 mL/kg; oral gavage) were used in these studies, and the rats were euthanized on SD 91. The dose levels for PFHI were 0, 12.5, 25, 50, 100, and 200 mg/kg-day. The dose levels for MHFPK were 0, 18.8, 37.5, 75, 150, and 300 mg/kg-day. The dose levels for PFNAC were 0, 0.1, 0.3, 1.0, 3.0, and 10 mg/kg-day for male rats and 0, 0.3, 1.0, 3.0, 10, and 30 mg/kg-day for female rats. For CTFPA, the dose levels were 0, 1.9, 3.8. 7.5, 15, and 30 mg/kg-day for male rats and 0, 6.3, 12.5, 25, 50, and 100 mg/kg-day for female rats. For each PFAS, three batches of dosing solution were prepared. The time between the batch preparation of the dosing solutions ranged between 29 and 39 days. Blood samples were collected from all the rats at termination for serum chemistry, hematology, coagulation, and the analysis of the parent PFAS chemical in the plasma. In vivo data collection and further detail on the endpoints examined postmortem are described below.
The rats were observed twice daily for morbidity and mortality throughout the study period. At least once prior to randomization to test groups and weekly thereafter, the rats were physically examined, and bodyweights were obtained. Feed consumption was quantified weekly starting on SD 1.
Neurotoxicity was evaluated using the functional observational battery (FOB) and measuring locomotor activity (LMA) 2–4 h post dosing on SDs 78–80 and 80–84, respectively. For both the 14- and 90-day studies, an ophthalmologic examination was conducted prior to randomization and near the end of the study, using indirect ophthalmoscopy and slit–lamp biomicroscopy (as needed) after the administration of a mydriatic solution.
Hematology, biochemistry, and coagulation endpoints were measured at the termination of the study. A Siemens Advia 2120i hematology analyzer (Siemens Healthineers, Erlangen, Germany) was used to measure (or calculate) the parameters related to the complete blood count, leukocyte differential count, and reticulocyte count. The hematology parameters are listed and described in Table 2. The prothrombin time […] and activated partial thromboplastin time (APTT) were measured using an Instrumentation Laboratory (Bedford, MA, USA) ACL Elite Pro coagulation analyzer (laser–nephelometric centrifugal method).
At necropsy, the rats were visually examined for external abnormalities and organ weights (absolute and relative to the BW and brain weight), which were recorded (paired organs weighed together). The tissues were preserved in 10% neutral buffered formalin (NBF), except for the ocular tissues, testes, and epididymides, which were preserved in modified Davidson’s fixative and later transferred to 10% NBF. Bone marrow smears were prepared from the femurs, and the slides were air-dried, fixed in methanol, stained, and stored at room temperature for possible future evaluation. The preserved tissues were embedded in paraffin, sectioned, stained with hematoxylin and eosin, and examined by a board-certified veterinary pathologist.
Statistical analysis was performed using Provantis™ Version 10 or greater (Instem LSS, Limited; Stone, Staffordshire, UK). Differences among the treatment groups compared to the control were evaluated using one-way analysis of variance (ANOVA) if the underlying assumptions of a normal distribution (Shapiro–Wilk test) and the homogeneity of the variance (Levene’s test) were satisfied. […]

## C=CC(=O)OCC(F)(F)C(F)(F)C(F)(F)C(F)(F)C(F)(F)C(F)(F)C(F)(F)C(F)F [PFNAC, 1H,1H,9H-Perfluorononyl acrylate]
female, 30 mg/kg-day
  Liver/Body Weight: 3.22%
  Liver/Brain Weight: 499%
  MPV: 7.95 ± 0.58 fL
  PT: 14.44 s
  RBC: 7.067±0.364 M/µL
  Total BW change: 106.79 g
  Total Food Consumed: 1525 g
male
  BMD10, absolute kidney weight increase: 0.17 mg/kg-day
  BMD10, absolute liver weight increase: 0.09 mg/kg-day
  BMD10, relative liver weight increase: 0.15 mg/kg-day
  BMDL, absolute kidney weight increase: 0.06 mg/kg-day
  BMDL, absolute liver weight increase: 0.04 mg/kg-day
  BMDL, relative liver weight increase: 0.13 mg/kg-day
  LOEL, absolute kidney weight increase: 0.3 mg/kg-day
  LOEL, absolute liver weight increase: 0.3 mg/kg-day
  LOEL, relative kidney weight increase: 1.0 mg/kg-day
  LOEL, relative liver weight increase: 0.3 mg/kg-day
  NOEL, absolute kidney weight increase: 0.1 mg/kg-day
  NOEL, absolute liver weight increase: 0.1 mg/kg-day
  NOEL, relative kidney weight increase: 0.3 mg/kg-day
  NOEL, relative liver weight increase: 0.1 mg/kg-day
male, 0.1 mg/kg-day
  % BW Gain: 110.97%
  % Diff, % BW Gain: 9.90%
  % Diff, Total BW change: 10.47%
  % Diff, Total Food Consumed: 3.57%
  A/G: 0.90±0.08 ratio
  ABNEUT: 4.163±1.653 K/µL
  ABRETi: 193.23±33.44 10^9/L
  ABSEOS: 0.112±0.047 K/µL
  ALB: 3.60 ± 0.21 g/dL
  ALPi: 138.7±40.9 U/L
  APTT: 23.16 s
  BUN: 16.2 ± 1.6 mg/dL
  CHOL: 73.4 ± 15.5 mg/dL
  GLOB: 4.03 ± 0.29 g/dL
  GLUC: 107.6 ± 8.6 mg/dL
  HCT: 46.10±4.64%
  HGB: 14.36 ± 1.40 g/dL
  Kidney Weight: 3.14 g
  Kidney/Body Weight: 0.51%
  Kidney/Brain Weight: 141%
  Liver Weight: 14.99 g
  Liver/Body Weight: 2.41%
  Liver/Brain Weight: 673%
  MPV: 7.82 ± 0.50 fL
  PT: 15.98 s
  RBC: 8.281±0.895 M/µL
  Total BW change: 333.40 g
  Total Food Consumed: 2298 g
male, 0.3 mg/kg-day
  % BW Gain: 113.17%
  % Diff, % BW Gain: 12.08%
  % Diff, Total BW change: 12.46%
  % Diff, Total Food Consumed: 9.40%
  A/G: 0.98±0.10 ratio
  ABNEUT: 3.679±1.341 K/µL
  ABRETi: 224.66±50.41 10^9/L
  ABSEOS: 0.108±0.037 K/µL
  ALB: 3.74 ± 0.23 g/dL
  ALPi: 174.2±32.7 U/L
  APTT: 15.99 s
  BUN: 18.3 ± 1.6 mg/dL
  CHOL: 78.7 ± 16.8 mg/dL
  GLOB: 3.85 ± 0.30 g/dL
  GLUC: 112.1 ± 9.6 mg/dL
  HCT: 47.33±1.28%
  HGB: 14.69 ± 0.40 g/dL
  Kidney Weight: 3.46 g
  Kidney/Body Weight: 0.56%
  Kidney/Brain Weight: 157%
  Liver Weight: 17.52 g
  Liver/Body Weight: 2.82%
  Liver/Brain Weight: 793%
  MPV: 7.63 ± 0.44 fL
  PT: 15.10 s
  RBC: 8.282±0.259 M/µL
  Total BW change: 339.42 g
  Total Food Consumed: 2427 g
male, 1.0 mg/kg-day
  % BW Gain: 108.93%
  % Diff, % BW Gain: 7.88%
  % Diff, Total BW change: 4.36%
  % Diff, Total Food Consumed: 6.25%
  A/G: 1.11±0.09 ratio
  ABNEUT: 2.627±0.787 K/µL
  ABRETi: 186.29±26.35 10^9/L
  ABSEOS: 0.097±0.026 K/µL
  ALB: 3.99 ± 0.25 g/dL
  ALPi: 327.4±48.9 U/L
  APTT: 12.70 s
  BUN: 20.4 ± 2.6 mg/dL
  CHOL: 62.6 ± 7.6 mg/dL
  GLOB: 3.59 ± 0.18 g/dL
  GLUC: 126.1 ± 10.3 mg/dL
  HCT: 45.42±2.38%
  HGB: 13.91 ± 0.69 g/dL
  Kidney Weight: 3.57 g
  Kidney/Body Weight: 0.61%
  Kidney/Brain Weight: 164%
  Liver Weight: 20.59 g
  Liver/Body Weight: 3.48%
  Liver/Brain Weight: 949%
  MPV: 7.90 ± 0.61 fL
  PT: 15.56 s
  RBC: 8.519±0.467 M/µL
  Total BW change: 314.97 g
  Total Food Consumed: 2357 g
male, 3.0 mg/kg-day
  % BW Gain: 89.59%
  % Diff, % BW Gain: -11.27%
  % Diff, Total BW change: -11.64%
  % Diff, Total Food Consumed: 7.33%
  A/G: 1.18±0.10 ratio
  ABNEUT: 2.351±0.464 K/µL
  ABRETi: 190.46±33.42 10^9/L
  ABSEOS: 0.095±0.043 K/µL
  ALB: 4.10 ± 0.25 g/dL
  ALPi: 286.4±30.8 U/L
  APTT: 12.24 s
  BUN: 22.6 ± 3.6 mg/dL
  CHOL: 68.5 ± 12.2 mg/dL
  GLOB: 3.48 ± 0.13 g/dL
  GLUC: 126.8 ± 13.8 mg/dL
  HCT: 46.18±2.11%
  HGB: 14.09 ± 0.70 g/dL
  Kidney Weight: 3.57 g
  Kidney/Body Weight: 0.65%
  Kidney/Brain Weight: 164%
  Liver Weight: 20.96 g
  Liver/Body Weight: 3.81%
  Liver/Brain Weight: 966%
  MPV: 7.79 ± 0.43 fL
  PT: 14.98 s
  RBC: 8.351±0.354 M/µL
  Total BW change: 266.69 g
  Total Food Consumed: 2381 g
male, 10 mg/kg-day
  % BW Gain: 80.97%
  % Diff, % BW Gain: -19.80%
  % Diff, Total BW change: -20.93%
  % Diff, Total Food Consumed: 2.34%
  A/G: 1.15±0.10 ratio
  ABNEUT: 2.413±0.948 K/µL
  ABRETi: 172.74±32.27 10^9/L
  ABSEOS: 0.101±0.025 K/µL
  ALB: 3.90 ± 0.20 g/dL
  ALPi: 315.8±44.0 U/L
  APTT: 12.57 s
  BUN: 22.4 ± 2.6 mg/dL
  CHOL: 68.0 ± 15.7 mg/dL
  GLOB: 3.39 ± 0.19 g/dL
  GLUC: 122.6 ± 10.8 mg/dL
  HCT: 44.76±2.84%
  HGB: 13.84 ± 0.78 g/dL
  Kidney Weight: 3.53 g
  Kidney/Body Weight: 0.69%
  Kidney/Brain Weight: 170%
  Liver Weight: 21.12 g
  Liver/Body Weight: 4.16%
  Liver/Brain Weight: 1016%
  MPV: 7.66 ± 0.42 fL
  PT: 15.81 s
  RBC: 8.118±0.277 M/µL
  Total BW change: 238.64 g
  Total Food Consumed: 2270 g
